ChEMBL document CHEMBL1201862, “PubChem BioAssay data set” (2004)
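Five concentrations, 48 hours, 96-well plates. At the GI50, growth is halved.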 Activity calls are given as the source filed them. Rule as the data show it: active = GI50 up to about 1.1 µM and inactive = higher.

Assays:
Test in all cases: NCI-60 cell line screen, 48 h
NCI-H23 = tested on: NCI-H23
SW-620 = tested on: SW-620
PC-3 = tested on: PC-3
UACC-62 = tested on: UACC-62
UACC-257 = tested on: UACC-257
SK-OV-3 = tested on: SK-OV-3
MCF7 = tested on: MCF7
BT-549 = tested on: BT-549
RPMI-8226 = tested on: RPMI-8226
HOP-62 = tested on: HOP-62
SK-MEL-5 = tested on: SK-MEL-5
HT-29 = tested on: HT-29
HOP-92 = tested on: HOP-92
OVCAR-4 = tested on: OVCAR-4
SK-MEL-28 = tested on: SK-MEL-28
NCI-H522 = tested on: NCI-H522
RXF 393 = tested on: RXF 393
HCT-116 = tested on: HCT-116
SF-295 = tested on: SF-295
OVCAR-8 = tested on: OVCAR-8

| SMILES | GI50 (NCI-H23) | GI50 (SW-620) | GI50 (PC-3) | GI50 (UACC-62) | GI50 (UACC-257) | GI50 (SK-OV-3) | GI50 (MCF7) | GI50 (BT-549) | GI50 (RPMI-8226) | GI50 (HOP-62) | GI50 (SK-MEL-5) | GI50 (HT-29) | GI50 (HOP-92) | GI50 (OVCAR-4) | GI50 (SK-MEL-28) | GI50 (NCI-H522) | GI50 (RXF 393) | GI50 (HCT-116) | GI50 (SF-295) | GI50 (OVCAR-8) |
| --- | --- | --- | --- | --- | --- | --- | --- | --- | --- | --- | --- | --- | --- | --- | --- | --- | --- | --- | --- | --- |
| O=C(c1ccccc1)c1ccc(C(c2c(O)c3ccccc3oc2=O)c2c(O)c3ccccc3oc2=O)cc1 | 20 µM (inactive) | 43.9 µM (inactive) | 27 µM (inactive) | 17.3 µM (inactive) | 22.8 µM (inactive) | 18.9 µM (inactive) | 34.5 µM (inactive) | 22.5 µM (inactive) | 18.5 µM (inactive) | 28.7 µM (inactive) | 24.5 µM (inactive) | 25.1 µM (inactive) | 18.5 µM (inactive) | 26.9 µM (inactive) | 28.8 µM (inactive) | 16.6 µM (inactive) | 27.2 µM (inactive) | 26.7 µM (inactive) | 21.2 µM (inactive) | 27 µM (inactive) |
| COC(=O)/C=C1/OC(c2ccc(C)cc2)=C(Cl)C1=O | 19 µM (inactive) | 10.7 µM (inactive) | 13.8 µM (inactive) | 17.1 µM (inactive) | 20.3 µM (inactive) | 24.2 µM (inactive) | 16.1 µM (inactive) | 17.7 µM (inactive) | 3.18 µM (inactive) | 19.9 µM (inactive) | 14.5 µM (inactive) | 12.9 µM (inactive) | 15.2 µM (inactive) | 13.3 µM (inactive) | 16.7 µM (inactive) | 9.4 µM (inactive) | 7.66 µM (inactive) | 11.7 µM (inactive) | 19.8 µM (inactive) | 16.9 µM (inactive) |
| COc1cccc2c(NNc3ccccc3)c3ccc([N+](=O)[O-])cc3nc12 | 20.5 µM (inactive) | 24.9 µM (inactive) | 14.7 µM (inactive) | 6.41 µM (inactive) | 29.9 µM (inactive) | 53.6 µM (inactive) | 26.4 µM (inactive) | 12.1 µM (inactive) | 7.1 µM (inactive) | 60.4 µM (inactive) | 37.6 µM (inactive) | 23.6 µM (inactive) | 26.4 µM (inactive) | 42 µM (inactive) | 43.2 µM (inactive) | 24.7 µM (inactive) | 48.9 µM (inactive) | 22.8 µM (inactive) | 27.5 µM (inactive) | 31.1 µM (inactive) |
| CCOC(=O)c1sc2nc(SC)nc(Nc3ccc(OC)c(OC)c3)c2c1N | 3.52 µM (inactive) | 7 µM (inactive) | 63.8 µM (inactive) | 4.74 µM (inactive) | > 100 µM (inactive) | 12.9 µM (inactive) | 3.95 µM (inactive) | 17.7 µM (inactive) | 1.84 µM (inactive) | 6.04 µM (inactive) | 3.61 µM (inactive) | 78 µM (inactive) | 9.89 µM (inactive) | 6.65 µM (inactive) | 14.7 µM (inactive) | 5.79 µM (inactive) | 3.33 µM (inactive) | 7.05 µM (inactive) | 6.9 µM (inactive) | 4.81 µM (inactive) |
| COc1ccc2c(c1)C(=O)c1ccccc1C2 | 96.4 µM (inactive) | 71.4 µM (inactive) | 29.2 µM (inactive) | 51.8 µM (inactive) | 33.8 µM (inactive) | 33.5 µM (inactive) | 64 µM (inactive) | 64.1 µM (inactive) | 46.8 µM (inactive) | 50.6 µM (inactive) | 49.9 µM (inactive) | 58.6 µM (inactive) | 64 µM (inactive) | 42.7 µM (inactive) | > 100 µM (inactive) | 47.4 µM (inactive) | 13.5 µM (inactive) | 36 µM (inactive) | 36.5 µM (inactive) | > 100 µM (inactive) |
| Cc1nc2ccccc2c(=O)n1/N=C(\N=N\c1cc(Cl)ccc1Cl)c1ccccc1 | 50.7 µM (inactive) | 32.1 µM (inactive) | 55.3 µM (inactive) | 45.8 µM (inactive) | 17.4 µM (inactive) | > 63 µM (inactive) | 8.04 µM (inactive) | 38.6 µM (inactive) | 41.4 µM (inactive) | 12.4 µM (inactive) | 36.2 µM (inactive) | 36.7 µM (inactive) | 30.4 µM (inactive) | 51.8 µM (inactive) | 47.2 µM (inactive) | 29.9 µM (inactive) | 63.5 µM (inactive) | 17.4 µM (inactive) | 44.9 µM (inactive) | 65.9 µM (inactive) |
| CC(=O)OC1CCC2(C)C(=CCC3C2CCC2(C)C3CC3OC4(CCC(C)CN4)C(C)C32)C1 (stereo not given) | > 100 µM (inactive) | > 100 µM (inactive) | > 100 µM (inactive) | > 100 µM (inactive) | > 100 µM (inactive) | > 100 µM (inactive) | > 100 µM (inactive) | > 100 µM (inactive) | > 100 µM (inactive) | > 100 µM (inactive) | > 100 µM (inactive) | > 100 µM (inactive) | > 100 µM (inactive) | > 100 µM (inactive) | > 100 µM (inactive) | > 100 µM (inactive) | > 100 µM (inactive) | > 100 µM (inactive) | > 100 µM (inactive) | > 100 µM (inactive) |
| c1ccc(COc2ccc(C[P+](c3ccccc3)(c3ccccc3)c3ccccc3)cc2)cc1 | 0.2 µM (active) | 0.272 µM (active) | 0.131 µM (active) | 0.195 µM (active) | 0.269 µM (active) | 0.287 µM (active) | 0.1 µM (active) | 0.139 µM (active) | 0.0257 µM (active) | 0.427 µM (active) | 0.108 µM (active) | 0.19 µM (active) | 0.153 µM (active) | 0.245 µM (active) | 0.337 µM (active) | 0.195 µM (active) | 0.0395 µM (active) | 0.104 µM (active) | 0.318 µM (active) | 0.163 µM (active) |
| Cc1ccc(S(=O)(=O)NC(=O)NCC(N)=O)cc1 | > 100 µM (inactive) | > 100 µM (inactive) | > 100 µM (inactive) | > 100 µM (inactive) | > 100 µM (inactive) | > 100 µM (inactive) | > 100 µM (inactive) | > 100 µM (inactive) | > 100 µM (inactive) | > 100 µM (inactive) | > 100 µM (inactive) | > 100 µM (inactive) | > 100 µM (inactive) | > 100 µM (inactive) | > 100 µM (inactive) | > 100 µM (inactive) | > 100 µM (inactive) | > 100 µM (inactive) | > 100 µM (inactive) | > 100 µM (inactive) |
| Cn1cc(-c2ccc(CCOC3CCCCO3)cc2)c2c(C#N)cccc21 (stereo not given) | 48.3 µM (inactive) | 28.5 µM (inactive) | 27.2 µM (inactive) | 44.6 µM (inactive) | 24.7 µM (inactive) | > 100 µM (inactive) | 38.3 µM (inactive) | 98.6 µM (inactive) | 41.9 µM (inactive) | > 100 µM (inactive) | > 100 µM (inactive) | 17 µM (inactive) | > 100 µM (inactive) | 31.8 µM (inactive) | 14.9 µM (inactive) | > 100 µM (inactive) | 45.3 µM (inactive) | 43.3 µM (inactive) | 34.7 µM (inactive) | > 100 µM (inactive) |
| Fc1ccc2nc3n(c2c1)C(c1c(Cl)cccc1Cl)SC3 (stereo not given) | > 100 µM (inactive) | > 100 µM (inactive) | > 100 µM (inactive) | > 100 µM (inactive) | > 100 µM (inactive) | > 100 µM (inactive) | > 100 µM (inactive) | > 100 µM (inactive) | > 100 µM (inactive) | > 100 µM (inactive) | > 100 µM (inactive) | > 100 µM (inactive) | 50.4 µM (inactive) | > 100 µM (inactive) | > 100 µM (inactive) | 29.4 µM (inactive) | > 100 µM (inactive) | > 100 µM (inactive) | > 100 µM (inactive) | > 100 µM (inactive) |
| Cc1c(CCCl)c(N=[N+]=[N-])n2c(nc3ccccc32)c1C#N | 1.41 µM (inactive) | 0.355 µM (active) | 1.42 µM (inactive) | 1.34 µM (inactive) | 1.6 µM (inactive) | 2.11 µM (inactive) | 0.47 µM (active) | 0.867 µM (active) | 0.385 µM (active) | 2.13 µM (inactive) | 0.491 µM (active) | 1.58 µM (inactive) | 1.25 µM (inactive) | 1.53 µM (inactive) | 1.58 µM (inactive) | 0.163 µM (active) | 1.4 µM (inactive) | 0.498 µM (active) | 1.67 µM (inactive) | 1.7 µM (inactive) |
| NC(=O)c1ccc2c(c1)S(=O)(=O)c1ccccc1C2=O | > 100 µM (inactive) | > 100 µM (inactive) | > 100 µM (inactive) | > 100 µM (inactive) | > 100 µM (inactive) | 75 µM (inactive) | > 100 µM (inactive) | > 100 µM (inactive) | > 100 µM (inactive) | 45 µM (inactive) | > 100 µM (inactive) | > 100 µM (inactive) | 63.2 µM (inactive) | > 100 µM (inactive) | > 100 µM (inactive) | > 100 µM (inactive) | > 100 µM (inactive) | > 100 µM (inactive) | 57.8 µM (inactive) | 33.1 µM (inactive) |
| CCCCOc1ccc(NC(=N)Nc2ccc(Cl)cc2)cc1 | 1.09 µM (active) | 1.03 µM (active) | 2.06 µM (inactive) | 12.3 µM (inactive) | 0.176 µM (active) | 10.6 µM (inactive) | 0.135 µM (active) | 9.57 µM (inactive) | 3.89 µM (inactive) | 0.235 µM (active) | 0.284 µM (active) | 0.243 µM (active) | 2.58 µM (inactive) | 1.84 µM (inactive) | 13.2 µM (inactive) | 5.86 µM (inactive) | 11.5 µM (inactive) | 0.421 µM (active) | 2.3 µM (inactive) | 11.2 µM (inactive) |
